The test system of test [1] is left ventricular pressure (dp/dt max). The test is described as follows: Cardiotonic activity, Test 1: dp/dt max change in anesthetized dogs. The class given is in vivo, Mongrel dogs. Conditions: 1.0 mg/kg, injected into the femoral vein. As to the method:
Mongrel dogs of either sex were anesthetized with sodium pentobarbital, 35 mg/kg, i.p.. The animals were allowed to breathe spontaneously. The left carotid artery was isolated and a catheter (USCI, #8F) filled with heparinized saline was inserted and advanced into the left ventricle. The catheter was connected to a pressure transducer (Nihonkohden, MPU-0.5A) to measure the left ventricular pressure, from which dp/dt max was derived by analog computing. The measure the systemic blood pressure the left femoral artery was cannulated. The blood pressure pulse was used to trigger a heart rate meter. Another catheter was positioned in the vena cave through right femoral vein for injection of drugs. Systemic blood pressure, left ventricular pressure, dp/dt max and heart rate was recorded simultaneously on a polygram (Nihonkohden, RJG-4008).
Test compound was dissolved in distilled water (0.2 ml/kg) or dimethyl sulfoxide (0.04 ml/kg) and injected into the femoral vein. The parameters after dosing were compared with those during the predosing period.
Test results were represented in terms of percentage of dp/dt max changes (dp/dt M.C.) calculated by following formula. [formula]

In another test the test system is atrial strip. Nature of the test: Cardiotonic activity, Test 2: contractile force and heart rate of isolated atrial strip. Conditions: Cavia porcellus, 0.5 h; 1 × 10^-5 g/ml; 30° C.; observed for 30 min; percentage before and after dosing. The arrangement: species or system Male Hartley strain guinea-pigs. As to the method:
Male Hartley strain guinea-pigs, weighing 530-600 g, were killed by bleeding and the heart was removed. An atrial strip was removed and suspended in an organ bath containing 50 ml of Tyrode's solution maintained at 30° C. and aerated with a gas mixture of 95% O2 -5% CO2. The atrium was connected to a strain gauge under an initial tension of 0.4-0.6 g. […] The effect was expressed as percentage values before and after dosing.

In test [2] the test system is Platelet aggregation (collagen). Nature of the test: Anti-platelet activity, Test 3: collagen-induced platelet aggregation in blood after oral administration. Conditions: 32 mg/kg oral, blood collected one hour after; collagen 5.0 μg/ml. Format: in vivo, Male Sprague-Dawley rats. As to the method: Male Sprague-Dawley rats weighing about 250 g were used after overnight fasting. One hour after oral administration of test compound or vehicle of test compound (control), blood was collected into a tube containing 0.1 vol. of 3.8% sodium citrate. To the 0.45 ml of blood, 0.05 ml of collagen (final concentration 5.0 μg/ml) was added and then incubated for 5 min. at 37° C. under shaking. The reaction was terminated by addition of 1 ml of 10 mM phosphate buffered saline (pH 7.4) containing 11.5 mM EDTA and 1% formalin. The reaction mixture was centrifuged at 70 xg for 5 min. and platelet count of upper phase was measured by Technicon Auto Analizer.
Platelet aggregation was calculated according to the following formula: [formula] A: Platelet count after addition of vehicle of collagen B: Platelet count after addition of collagen.
Inhibition of the test compound was calculated according to the following formula. [formula] C: Platelet aggregation (%) of control D: Platelet aggregation (%) of Test compound.

A further test has as its system carrageenin foot edema. The test is described as follows: Anti-inflammatory activity, Test 5: carrageenin foot edema. The class given is in vivo, Male Sprague-Dawley rats. Conditions: 32 mg/kg oral, 60 minutes before phlogogen; edema volume 3 hours after phlogogen; 1% carrageenin. As to the method:
Male Sprague-Dawley rats weighing about 180 g were used in groups of five. Paw edema was induced by subplantar injection of 1% carrageenin (0.1 ml/rat) into the right hind paw in carrageenin foot edema. The test compound was suspended in methylcellulose and administered orally 60 minutes before halogogen. Paw volume was measured with plethysmometer (Ugo Basil Co., Ltd.) by water displacement immersing the paw to the lateral malleolus. The difference of paw volume before and 3 hours after the phlogogen was designated as edema volume.
The data was analyzed statistically by student's t-test.
For orientation: The carrageenan paw model is a standard test of acute inflammation.

Test [3] deals with Platelet aggregation (9,11-azo PGH2). Nature of the test: Anti-platelet activity, Test 4: 9,11-azo PGH2-induced platelet aggregation in platelet rich plasma. The class given is cell-based, rabbits. The settings on record: Oryctolagus cuniculus, rabbit PRP, 9,11-azo PGH2 1.0 μM, 37° C. As to the method: The blood was collected from the carotid artery of rabbits into plastic vessels containing 0.1 volume of 3.8% sodium citrate. Platelet rich plasma (PRP) was prepared by centrifugation at 150 g for 15 minutes. Platelet aggregation was investigated by using the turbidimetric method with an aggregometer (NKK HEMATRACER 1). To the 225 μl of PRP, 25 μl of test compound solution was added, and then stirred at 1000 rpm for 2 minutes at 37° C. To the solution 5 μl of 9,11-azo PGH2 (final 1.0 μM) was added as an aggregating inducer.

Each structure is given as a SMILES string. Values after ≈ are worked out from the molar mass of the structure shown.

Turning to `COc1ccc(-c2nc(-c3cccnc3)c(C)[nH]2)c(OC)c1` [Compound a, 2-(2,4-Dimethoxyphenyl)-5-methyl-4-(3-pyridyl)imidazole], the “dp/dt M.C. (percentage of dp/dt max changes)” value in test [1] is 82%. Also, in the test with atrial strip, the activation at 10 µg/mL was determined as 45% and testing at 10 µg/mL gave an inhibition of 21.2%.
For the compound `CCc1nc(-c2ccc(OC)cc2OC)[nH]c1-c1cccnc1` [Compound b, 2-(2,4-Dimethoxyphenyl)-4-ethyl-5-(3-pyridyl)imidazole], the “dp/dt M.C. (percentage of dp/dt max changes)” value in test [1] stood at 133%.
With `COc1cc(SC)ccc1-c1nc(-c2cccnc2)c(C)[nH]1` [Compound c, 2-(2-Methoxy-4-methylthiophenyl)-5-methyl-4-(3-pyridyl)imidazole], the “dp/dt M.C. (percentage of dp/dt max changes)” value in test [1] worked out at 167%.
`CCc1[nH]c(-c2ccc(OC)c(OC)c2)nc1-c1ccccn1` [Compound d, 2-(3,4-Dimethoxyphenyl)-5-ethyl-4-(2-pyridyl)imidazole]: in the test on atrial strip, the activation at 10 µg/mL was determined as 51.6% and 10 µg/mL produced 14.1% inhibition.
In the case of `COc1ccc(-c2nc(-c3ccncc3)c(C)[nH]2)c(OC)c1` [Compound e, 2-(2,4-Dimethoxyphenyl)-5-methyl-4-(4-pyridyl)imidazole], in the test on atrial strip, the activation at 10 µg/mL worked out at 58% and the inhibition (usually the share of the control response that was lost under treatment) at 10 µg/mL was found to be 26.8%.
On to `CCc1[nH]c(-c2ccc(OC)cc2OC)nc1-c1ccncc1` [Compound f, 2-(2,4-Dimethoxyphenyl)-5-ethyl-4-(4-pyridyl)imidazole], for which, in the test on atrial strip, the activation at 10 µg/mL was 61.1% and the inhibition at 10 µg/mL came to 30.7%.
As to `COc1cc(NC(C)=O)c(Cl)cc1-c1nc(-c2cccnc2)c(C)[nH]1` [Compound g, 2-(4-Acetamido-5-chloro-2-methoxyphenyl)-5-methyl-4-(3-pyridyl)imidazole], in test [2], the “Inhibition (platelet aggregation)” value is on record as 87.6%.
In the case of `COc1ccccc1-c1nc(-c2cccnc2)c(C)[nH]1` [Compound h, 2-(2-Methoxyphenyl)-5-methyl-4-(3-pyridyl)imidazole], the “Inhibition (paw edema)” value in the test on carrageenin foot edema came to 62.7%.
Consider `Cc1nc(-c2ccccc2F)[nH]c1-c1cccnc1` [Compound i, 2-(2-Fluorophenyl)-4-methyl-5-(3-pyridyl)imidazole], for which the IC50 (as a rule, the concentration at which inhibition is half-maximal) in test [3] turned out to be 0.11 µg/mL (≈ 0.434 µM). Further, the “Inhibition (platelet aggregation)” value in test [2] was 100%.
For `CC(=O)Nc1ccccc1-c1nc(C)c(-c2cccnc2)[nH]1` [Compound j, 2-(2-Acetamidophenyl)-4-methyl-5-(3-pyridyl)imidazole] the same measures were 0.39 µg/mL (≈ 1.33 µM) and 91.3%.
Regarding `COc1cc(Cl)ccc1-c1nc(-c2cccnc2)c(C)[nH]1` [Compound k, 2-(4-Chloro-2-methoxyphenyl)-5-methyl-4-(3-pyridyl)imidazole], in the test with carrageenin foot edema, the “Inhibition (paw edema)” value is reported as 72.3%. The IC50 in test [3] amounted to 0.16 µg/mL (≈ 0.534 µM).

The values are drawn from patent US4822805A, “Pyridyl-imidazole compounds which have useful pharmaceutical activity” (Fujisawa Pharmaceutical Co., Ltd., priority 1986, dated 1989).
